Laboratory results published in ChEMBL document CHEMBL1201862, “PubChem BioAssay data set” (2004).
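Five concentrations, 48 hours, 96-well plates. GI50 = concentration required for 50% inhibition of growth.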 Active and inactive are the calls of the source. Rule as the data show it: active = GI50 up to about 1.1 µM and inactive = higher.

Experiments:
Assay in all cases: NCI tumour cell line growth inhibition, 48 h
A498 = tested on: A498
UO-31 = tested on: UO-31
MDA-MB-231 = tested on: MDA-MB-231
NCI-H23 = tested on: NCI-H23
NCI-H460 = tested on: NCI-H460
MOLT-4 = tested on: MOLT-4
SF-268 = tested on: SF-268
T47D = tested on: T47D
KM12 = tested on: KM12
M14 = tested on: M14
K562 = tested on: K562
OVCAR-3 = tested on: OVCAR-3
SNB-75 = tested on: SNB-75
EKVX = tested on: EKVX
OVCAR-5 = tested on: OVCAR-5
COLO 205 = tested on: COLO 205
SF-295 = tested on: SF-295
Hs-578T = tested on: Hs-578T
SW-620 = tested on: SW-620
CAKI-1 = tested on: CAKI-1
SK-MEL-5 = tested on: SK-MEL-5
ACHN = tested on: ACHN
MDA-N = tested on: MDA-N
SR = tested on: SR
SK-OV-3 = tested on: SK-OV-3
NCI-H522 = tested on: NCI-H522
786-0 = tested on: 786-0
HCC 2998 = tested on: HCC 2998
IGROV-1 = tested on: IGROV-1
MDA-MB-435 = tested on: MDA-MB-435
HT-29 = tested on: HT-29
NCI/ADR-RES = tested on: NCI/ADR-RES
SN12C = tested on: SN12C
HL-60 = tested on: HL-60
RPMI-8226 = tested on: RPMI-8226
UACC-257 = tested on: UACC-257
NCI-H226 = tested on: NCI-H226
SF-539 = tested on: SF-539
BT-549 = tested on: BT-549
UACC-62 = tested on: UACC-62
HCT-116 = tested on: HCT-116
SNB-19 = tested on: SNB-19
Malme-3M = tested on: Malme-3M
OVCAR-8 = tested on: OVCAR-8
DU-145 = tested on: DU-145
HOP-92 = tested on: HOP-92
MCF7 = tested on: MCF7
TK-10 = tested on: TK-10
RXF 393 = tested on: RXF 393
LOX IMVI = tested on: LOX IMVI
HCT-15 = tested on: HCT-15
HOP-62 = tested on: HOP-62
CCRF-CEM = tested on: CCRF-CEM
A549 = tested on: A549
U-251 = tested on: U-251
PC-3 = tested on: PC-3
SK-MEL-28 = tested on: SK-MEL-28
SK-MEL-2 = tested on: SK-MEL-2

Measured: GI50

O=C(CC(=O)N1N=C(c2ccccc2)C(/N=N/c2ccc(S(=O)(=O)CCOS(=O)(=O)O)cc2)C1=O)Nc1ccc(Cl)cc1 (stereo not drawn)
inactive: A498 > 100 µM | UO-31 40.3 µM | MDA-MB-231 91.6 µM | NCI-H23 > 100 µM | NCI-H460 > 100 µM | MOLT-4 79.3 µM | SF-268 > 100 µM | T47D > 100 µM | KM12 21.7 µM | M14 28.1 µM | K562 7.5 µM | OVCAR-3 > 100 µM | SNB-75 > 100 µM | EKVX > 100 µM | OVCAR-5 > 100 µM | COLO 205 > 100 µM | SF-295 > 100 µM | Hs-578T 20.6 µM | SW-620 > 10 µM | CAKI-1 > 100 µM | SK-MEL-5 > 100 µM | ACHN 9.82 µM | MDA-N > 100 µM | SR > 100 µM | SK-OV-3 > 100 µM | NCI-H522 30.9 µM | 786-0 > 100 µM | HCC 2998 59.4 µM | IGROV-1 8.75 µM | MDA-MB-435 > 100 µM | HT-29 > 100 µM | NCI/ADR-RES > 100 µM | SN12C 86.5 µM | HL-60 > 100 µM | RPMI-8226 > 100 µM | UACC-257 > 100 µM | NCI-H226 > 100 µM | SF-539 > 100 µM | BT-549 > 100 µM | UACC-62 > 100 µM | HCT-116 85.9 µM | SNB-19 > 100 µM | Malme-3M > 100 µM | OVCAR-8 > 100 µM | DU-145 > 100 µM | HOP-92 > 100 µM | MCF7 > 100 µM | TK-10 > 100 µM | RXF 393 > 100 µM | LOX IMVI 84.1 µM | HOP-62 > 100 µM | CCRF-CEM 49.5 µM | A549 > 100 µM | U-251 > 100 µM | PC-3 > 100 µM | SK-MEL-28 > 100 µM | SK-MEL-2 > 100 µM
8.61 µM: HCT-15
